Experimental data published in patent EP3807270B1, “NOVEL HETEROARYL HETEROCYCLYL COMPOUNDS FOR THE TREATMENT OF AUTOIMMUNE DISEASE” (F. Hoffmann-La Roche AG, priority 2018, dated 2019).

Assay: Human microsome stability assay
Type: in vitro ADME
Conditions: 1 µM test compound, 0.5 mg/mL liver microsomal protein, 37 °C
Experimental: The human microsomal stability assay is used for early assessment of metabolic stability of a test compound in human liver microsomes.
Human liver microsomes (Cat.NO.: 452117, Corning, USA;Cat.NO.:H2610, Xenotech, USA) were preincubated with test compound for 10 minutes at 37 °C in 100 mM potassium phosphate buffer, pH 7.4. The reactions were initiated by adding NADPH regenerating system. The final incubation mixtures contained 1 µM test compound, 0.5 mg/mL liver microsomal protein, 1 mM MgClz, 1 mM NADP, 1 unit/mL isocitric dehydrogenase and 6 mM isocitric acid in 100 mM potassium phosphate buffer, pH 7.4. After incubation times of 0, 3, 6, 9, 15 and 30 minutes at 37 °C, 300 µL of cold acetonitrile (including internal standard) was added to 100 µL incubation mixture to terminate the reaction. Following precipitation and centrifugation, the amount of compound remaining in the samples were determined by LC-MS/MS. Controls of no NADPH regenerating system at zero and 30 minutes were also prepared and analyzed. […] Table 6. Human liver microsome stability of the compounds of present invention

| SMILES | Clearance of Human microsome [mL/min/kg] |
| --- | --- |
| CC1NCc2cc(N3CCN(C[C@H]4CN(c5ccc(C#N)c6ncccc56)C[C@@H](C)O4)CC3)ccc21 (stereo partly drawn) [Example 28, 5-[(2R,6S)-2-methyl-6-[[4-(1-methylisoindolin-5-yl)piperazin-1-yl]methyl]morpholin-4-yl]quinoline-8-carbonitrile] | 6.15 |
| C[C@@H]1CN(c2ccc(C#N)c3ncccc23)C[C@H](CN2CCN(c3ccc4c(c3)CNC4)CC2)O1 [Example 7, 5-[(2S,6R)-2-[(4-isoindolin-5-ylpiperazin-1-yl)methyl]-6-methyl-morpholin-4-yl] quinoline-8-carbonitrile] | 8.75 |
| C[C@@H]1Cc2cnc(N3CCN(C[C@H]4CN(c5ccc(C#N)c6nccnc56)C[C@@H](C)O4)CC3)cc2CN1 (single isomer, unassigned) [Example 82] | 8.84 |
| C[C@@H]1CN(c2ccc(C#N)c3ncccc23)C[C@H](CN2CCN(c3ccc4c(n3)CN[C@H]4C)CC2)O1 (single isomer, unassigned) [Example 63] | 6.15 |
| C[C@@H]1CN(c2ccc(C#N)c3ncccc23)C[C@H](CN2CCN(c3ccc4c(n3)CNCC4)CC2)O1 [Example 69, 5-[(2R,6S)-2-methyl-6-[[4-(5,6,7,8-tetrahydro-1,7-naphthyridin-2-yl)piperazin-1-yl]methyl]morpholin-4-yl]quinoline-8-carbonitrile] | 6.23 |
| C[C@@H]1Cc2cc(N3CCN(C[C@H]4CN(c5ccc(C#N)c6nccnc56)C[C@@H](C)O4)CC3)ncc2CN1 (single isomer, unassigned) [Example 83] | 8.31 |
| C[C@@H]1CN(c2ccc(C#N)c3nccnc23)C[C@H](CN2CCN(c3cc4c(cn3)CCNC4)CC2)O1 [Example 80, 8-[(2R,6S)-2-methyl-6-[[4-(5,6,7,8-tetrahydro-2,6-naphthyridin-3-yl)piperazin-1-yl]methyl]morpholin-4-yl]quinoxaline-5-carbonitrile] | 6.15 |
| C[C@@H]1CN(c2ccc(C#N)c3nccnc23)C[C@H](CN2CCN(c3cc4c(cn3)C[C@H](C)NC4)CC2)O1 (single isomer, unassigned) [Example 81] | 6.15 |
| C[C@@H]1CN(c2ccc(C#N)c3ncccc23)C[C@H](CN2CCN(c3ccc(Cl)cc3)CC2)O1 [Example R2, 5-[(2S,6R)-2-[[4-(4-chlorophenyl)piperazin-1-yl]methyl]-6-methyl-morpholin-4-yl]quinoline-8-carbonitrile, reference compound] | 15.43 |
| C[C@@H]1CN(c2ccc(C#N)c3ncccc23)C[C@H](CN2CCN(c3ccc4c(c3)C(O)CNC4)CC2)O1 (stereo partly drawn) [Example 22, 5-[(2S,6R)-2-[[4-(4-hydroxy-1,2,3,4-tetrahydroisoquinolin-6-yl)piperazin-1-yl]methyl]-6-methyl-morpholin-4-yl]quinoline-8-carbonitrile] | 6.82 |
| C[C@@H]1CN(c2ccc(C#N)c3ncccc23)C[C@H](CN2CCN(c3cc4c(cn3)CCN[C@@H]4C)CC2)O1 (single isomer, unassigned) [Example 74] | 7.39 |
| C[C@@H]1CN(c2ccc(C#N)c3ncccc23)C[C@H](CN2CCN(c3cnc4c(c3)CN[C@H]4C)CC2)O1 (single isomer, unassigned) [Example 67] | 6.15 |
| C[C@@H]1Cc2cc(N3CCN(C[C@H]4CN(c5ccc(C#N)c6ncccc56)C[C@@H](C)O4)CC3)ncc2CN1 (single isomer, unassigned) [Example 70] | 7.55 |
| C[C@@H]1CN(c2ccc(C#N)c3ncccc23)C[C@H](CN2CCN(c3cc4c(cn3)CCNC4)CC2)O1 [Example 20, 5-[(2R,6S)-2-methyl-6-[[4-(5,6,7,8-tetrahydro-2,6-naphthyridin-3-yl)piperazin-1-yl]methyl]morpholin-4-yl]quinoline-8-carbonitrile] | 6.43 |
| C[C@@H]1CN(c2ccc(C#N)c3ncccc23)C[C@H](CN2CCN(c3ccc4c(c3)CCNC4CO)CC2)O1 (stereo partly drawn) [Example 24, 5-[(2S,6R)-2-[[4-[1-(hydroxymethyl)-1,2,3,4-tetrahydroisoquinolin-6-yl]piperazin-1-yl]methyl]-6-methyl-morpholin-4-yl]quinoline-8-carbonitrile] | 6.15 |
| C[C@@H]1Cc2cnc(N3CCN(C[C@H]4CN(c5ccc(C#N)c6ncccc56)C[C@@H](C)O4)CC3)cc2CN1 (single isomer, unassigned) [Example 77] | 6.34 |
| C[C@@H]1CN(c2ccc(C#N)c3nccnc23)C[C@H](CN2CCN(c3cc4c(cn3)[C@H](C)NCC4)CC2)O1 (single isomer, unassigned) [Example 85] | 7.83 |
| C[C@@H]1CN(c2ccc(C#N)c3nccnc23)C[C@H](CN2CCN(c3ccc4c(n3)CN[C@H]4C)CC2)O1 (single isomer, unassigned) [Example 78] | 7.50 |
| C[C@@H]1CN(c2ccc(C#N)c3ncccc23)C[C@H](CN2CCN(c3cc4c(cn3)C[C@H](C)NC4)CC2)O1 (single isomer, unassigned) [Example 76] | 6.15 |
| C[C@@H]1CN(c2ccc(C#N)c3ncccc23)C[C@H](CN2CCN(c3cnc4c(c3)CCNC4)CC2)O1 [Example 23, 5-[(2R,6S)-2-methyl-6-[[4-(5,6,7,8-tetrahydro-1,7-naphthyridin-3-yl)piperazin-1-yl]methyl]morpholin-4-yl]quinoline-8-carbonitrile] | 6.15 |
| C[C@@H]1CN(c2ccc(C#N)c3ncccc23)C[C@H](CN2CCN(c3ccc4c(c3)CNC4)C(CO)C2)O1 (stereo partly drawn) [Example 13, 5-[(2S,6R)-2-[[3-(hydroxymethyl)-4-isoindolin-5-yl-piperazin-1-yl]methyl]-6-methyl-morpholin-4-yl]quinoline-8-carbonitrile] | 8.00 |
